Measurements as given in patent publication US11738031B2, “Compositions and methods for preventing or treating muscle conditions” (The Board of Trustees of the Leland Stanford Junior …, priority 2017, dated 2023).

Columns and labels:
[1] = system: MuSCs transplanted into tibialis anterior (TA) muscles of recipient mice; test: Muscle stem cell transplantation, engraftment by bioluminescence imaging (BLI); format: in vivo, mouse; settings: for BLI signal of engrafted MuSCs after secondary (notexin) injury: notexin re-injury one month after transplant
[2] = system: gastrocnemius (GA) muscle; test: In vivo muscle force after downhill treadmill run, aged mice, gastrocnemius; parameters: species or system mouse
Description: In vivo muscle force measurement: Aged mice (18 mo.) were subjected to downhill treadmill run for 2 consecutive weeks. During week 1, mice ran daily for 5 days and rested on days 6 and 7. […] During week 2, mice were subjected to 5 days treadmill run only. The treadmill run was performed using the Exer3/6 (Columbus Instruments). Mice ran for 10 minutes on the treadmill at 20 degrees downhill, starting at a speed of 7 meters/min. After 3 min, the speed was increased by 1 meter/min to a final speed of 14 meter/min. […] Force measurements were on the GA muscles at week 5 based on a protocol published previously^5. Briefly, for each mouse, an incision was made to expose the GA. We severed the calcaneus bone with intact achilles tendon and attached the tendon-bone complex to a 300C-LR force transducer (Aurora Scientific) with a thin metal hook. The muscles and tendons were kept moist by periodic wetting with saline (0.9% sodium chloride) solution. The lower limb was immobilized below the knee by a metal clamp without compromising the blood supply to the leg. The mouse was under inhaled anesthetic (2% isofluorane) during the entire force measuring procedure and body temperature was maintained by a heat lamp. […] Data were collected with a PCI-6251 acquisition card (National Instruments) and analyzed in Matlab. We calculated specific force values by normalizing the force measurements by the muscle physiological cross-sectional areas (PCSAs), which were similar between the control and the experimental PGE2 treated group (Table 2). PCSA (measured in mm^2) was calculated according to the following equation^12: PCSA (mm^2)=[mass (g)×Cos θ]÷[ρ (g/mm^3)×fiber length (mm)], where θ is pennation angle of the fiber and ρ is muscle density (0.001056 g/mm^3). […]
The muscle force and synchronization pulses were recorded via a PCI-6251 acquisition card (National Instruments) and analyzed using Matlab. FIGS. 5O-5P show the specific muscle force values that were calculated by normalizing the force measurements with the muscle physiological cross-sectional area. […]

[3] = 13 nM dmPGE2 daily for 5 days after downhill treadmill run, force at week 5

Structure (SMILES) | engraftment of aged MuSCs coinjected with dmPGE2 ([1]; aged MuSCs, 250 cells, 13 nmol dmPGE2) | engraftment of young MuSCs coinjected with dmPGE2 ([1]; freshly isolated MuSCs, 250 cells, 13 nmol dmPGE2) | BLI signal of engrafted MuSCs after secondary (notexin) injury [1] | specific tetanic force of gastrocnemius [2, 3] | specific twitch force of gastrocnemius [2, 3] | regenerative capacity of MuSCs coinjected with PGE2, by BLI ([1]; 250 GFP/Luc MuSCs into injured TAs of NSG mice (Example 3)) | regenerative capacity of cultured PGE2-treated young MuSCs by BLI ([1]; acute 1-day PGE2 in culture, 250 cells transplanted on day 7 into NOD-SCID mice) | specific twitch force of gastrocnemius muscles (Example 2) ([2]; treadmill to exhaustion daily for 10 days, 3 nM PGE2 after each run, force 4 weeks after last run)
CCCCC(C)(C)[C@H](O)/C=C/[C@H]1[C@H](O)CC(=O)[C@@H]1C/C=C\CCCC(=O)O [dmPGE2, 16,16-dimethyl prostaglandin E2] | significantly enhanced engraftment | significantly enhanced engraftment | further increased in response to notexin injury | significantly increased | significantly increased | – | – | –
CCCCC[C@H](O)/C=C/[C@H]1[C@H](O)CC(=O)[C@@H]1C/C=C\CCCC(=O)O [PGE2, prostaglandin E2] | – | – | spike in BLI signals | – | – | nearly two orders of magnitude | enhanced by an order of magnitude | increase in specific twitch force
